Assay: Pharmacokinetics of PTH (1-34) in minipigs, sugar truffle buccal/sublingual vs SC, plasma PTH (1-34) ELISA
Conditions: for AUC(0-inf) / AUC 0-t / AUC(t-inf) extrapolated / MRT inf / AUMC 0-inf_obs / AUMC 0-inf_pred / AUMC 0-t / AUMC t-inf_obs / AUMC t-inf_pred / Clast_obs / Clast_pred / Lambda_z / Tlag / Tlast: minipigs; for Mean PTH (1-34) levels: pigs, GII - Buccal/sublingual 0.49 mg
[1] = female, Yorkshire, minipig, plasma, 0.49 mg
[2] = female, Yorkshire, minipig, plasma, sc, 0.04 mg

Method: Pharmacokinetic analysis was conducted in Female Minipigs weighing 12±1 kg for 2 days. Pigs in the oral treatment group was either fasted overnight or fed prior to the test sample administration. All the test animals in the treatment groups were administered with respective test formulation to the pre-designated animals. The animal was restrained and its head was held vertically, the jaws were pulled away, the tongue was gently lifted with a forceps followed by placement of a polypeptide formulation as described herein buccally/sublingually. After placing a polypeptide formulation as described herein, the snout was held together for about 1-2 mins to prevent the chewing of the polypeptide formulation. The time of dosage of each animal was noted. Blood samples were collected at aforementioned time points 0 min, 5 min, 30 min, 1 hour, 2 hours, 4 hours, 8 hours, and 24 hours into an EDTA-blood collection tubes for the separation of plasma to determine PTH (1-34) levels by ELISA. Plasma samples collected at different time points were analyzed by ELISA kit according to Creative Diagnostics protocol. This kit is based on sandwich enzyme-linked immuno-sorbent assay technology. An antibody, anti-PTH (1-34) was pre-coated onto a 96-well plate. Standards, test samples, and biotin-conjugated reagent were added to the wells and incubated. The HRP-conjugated reagent was then added, and the whole plate was incubated. Unbound conjugates were removed using wash buffer at each stage. TMB substrate was used to quantify the HRP enzymatic reaction. After TMB substrate was added, only wells that contain sufficient PTH (1-34) will produce a blue colored product, which then changes to yellow after adding the acidic stop solution. The intensity of the yellow color is proportional to the PTH (1-34) amount bound on the plate. The Optical Density (OD) was measured spectrophotometrically at 450 nm in a microplate reader, from which the concentration of PTH (1-34) can be calculated.
PTH (1-34) was analyzed in plasma using a specific enzyme linked immunosorbent assay (ELISA). Pharmacokinetic endpoints were determined using noncompartmental methods using PK Solutions software. AUC was approximated using the trapezoidal rule on the observed concentrations. C max for each PTH (1-34) dose was derived as the maximum of all valid concentrations, and t max was then determined as the corresponding time point to C max. The terminal elimination rate constant (λz) was estimated by log-linear regression on the terminal part of the concentration-time curve, and t ½ was then calculated as t ½=ln 2/λz.

Q: For CC[C@H](C)[C@H](NC(=O)[C@H](CCC(=O)O)NC(=O)[C@H](CO)NC(=O)[C@@H](NC(=O)[C@@H](N)CO)C(C)C)C(=O)N[C@@H](CCC(N)=O)C(=O)N[C@@H](CC(C)C)C(=O)N[C@@H](CCSC)C(=O)N[C@@H](Cc1cnc[nH]1)C(=O)N[C@@H](CC(N)=O)C(=O)N[C@@H](CC(C)C)C(=O)NCC(=O)N[C@@H](CCCCN)C(=O)N[C@@H](Cc1cnc[nH]1)C(=O)N[C@@H](CC(C)C)C(=O)N[C@@H](CC(N)=O)C(=O)N[C@@H](CO)C(=O)N[C@@H](CCSC)C(=O)N[C@@H](CCC(=O)O)C(=O)N[C@@H](CCCN=C(N)N)C(=O)N[C@H](C(=O)N[C@@H](CCC(=O)O)C(=O)N[C@@H](Cc1c[nH]c2ccccc12)C(=O)N[C@@H](CC(C)C)C(=O)N[C@@H](CCCN=C(N)N)C(=O)N[C@@H](CCCCN)C(=O)N[C@@H](CCCCN)C(=O)N[C@@H](CC(C)C)C(=O)N[C@@H](CCC(N)=O)C(=O)N[C@@H](CC(=O)O)C(=O)N[C@H](C(=O)N[C@@H](Cc1cnc[nH]1)C(=O)N[C@@H](CC(N)=O)C(=O)N[C@@H](Cc1ccccc1)C(=O)O)C(C)C)C(C)C [PTH (1-34)], which Cmax [1] is on record?
A: The Cmax was 3290 pg/mL.

Q: And the MRT last [1]?
A: The MRT last was 1.35 h.

Q: And the Tmax [1]?
A: The Tmax was 0.08 h.

Q: And the half-life [1]?
A: Its half-life is 0.977 h.

Q: And the level at 5 min [1]?
A: Its level at 5 min is 3290 pg/mL.

Q: And the level at 0.5 h [1]?
A: Its level at 0.5 h is 3040 pg/mL.

Q: And the level at 1 h [1]?
A: The level at 1 h was 2610 pg/mL.

Q: What about the level at 2 h [1] of the same compound?
A: The level at 2 h was 1240 pg/mL.

Q: And the level at 4 h [1]?
A: Its level at 4 h is 189 pg/mL.

Q: What about the level at 8 h [1] of the same compound?
A: Its level at 8 h is 17.8 pg/mL.

Q: And the AUC(0-inf) (female, Yorkshire, minipig, plasma, 0.49 mg, AUC 0-inf_obs, buccal/sublingual)?
A: Its AUC(0-inf) is 6.67 ng·h/mL.

Q: What about the AUC(0-inf) (female, Yorkshire, minipig, plasma, 0.49 mg, AUC 0-inf_pred, buccal/sublingual) of the same compound?
A: The AUC(0-inf) was 6.67 ng·h/mL.

Q: And the AUC 0-t (female, Yorkshire, minipig, plasma, 0.49 mg, buccal/sublingual)?
A: Its AUC 0-t is 6.64 ng·h/mL.

Q: What about the AUC(t-inf) extrapolated (female, Yorkshire, minipig, plasma, 0.49 mg, AUC t-inf_obs, buccal/sublingual) of the same compound?
A: Its AUC(t-inf) extrapolated is 0.025 ng·h/mL.

Q: And the AUC(t-inf) extrapolated (female, Yorkshire, minipig, plasma, 0.49 mg, AUC t-inf_pred, buccal/sublingual)?
A: The AUC(t-inf) extrapolated was 0.022 ng·h/mL.

Q: What about the MRT inf (female, Yorkshire, minipig, plasma, 0.49 mg, MRT 0-inf_obs, buccal/sublingual) of the same compound?
A: Its MRT inf is 1.39 h.

Q: What about the MRT inf (female, Yorkshire, minipig, plasma, 0.49 mg, MRT 0-inf_pred, buccal/sublingual) of the same compound?
A: The MRT inf was 1.38 h.

Q: What about the bioavailability (female, Yorkshire, minipig, plasma, other: buccal/sublingual, 0.49 mg) of the same compound?
A: The bioavailability was 6%.

Q: What about the Cmax [2] of the same compound?
A: The Cmax was 3280 pg/mL.

Q: What about the MRT last [2] of the same compound?
A: Its MRT last is 2.02 h.

Q: And the Tmax [2]?
A: The Tmax was 0.5 h.

Q: And the half-life [2]?
A: Its half-life is 4.55 h.

Q: And the level at 0 h [2]?
A: The level at 0 h was 0.002 pg/mL.

Q: What about the level at 5 min [2] of the same compound?
A: Its level at 5 min is 394 pg/mL.

Q: And the level at 0.5 h [2]?
A: Its level at 0.5 h is 3280 pg/mL.

Q: And the level at 1 h [2]?
A: The level at 1 h was 3260 pg/mL.

Q: And the level at 2 h [2]?
A: The level at 2 h was 2990 pg/mL.

Q: What about the level at 4 h [2] of the same compound?
A: Its level at 4 h is 164 pg/mL.

Q: What about the level at 8 h [2] of the same compound?
A: Its level at 8 h is 50 pg/mL.

Q: What about the level at 24 h [2] of the same compound?
A: The level at 24 h was 6.43 pg/mL.

Q: And the AUC(0-inf) (female, Yorkshire, minipig, plasma, sc, 0.04 mg, AUC 0-inf_obs)?
A: Its AUC(0-inf) is 9.62 ng·h/mL.

Q: What about the AUC(0-inf) (female, Yorkshire, minipig, plasma, sc, 0.04 mg, AUC 0-inf_pred) of the same compound?
A: The AUC(0-inf) was 9.62 ng·h/mL.

Q: And the AUC 0-t [2]?
A: Its AUC 0-t is 9.58 ng·h/mL.

Q: And the AUC(t-inf) extrapolated (female, Yorkshire, minipig, plasma, sc, 0.04 mg, AUC t-inf_obs)?
A: The AUC(t-inf) extrapolated was 0.0423 ng·h/mL.

Q: What about the AUC(t-inf) extrapolated (female, Yorkshire, minipig, plasma, sc, 0.04 mg, AUC t-inf_pred) of the same compound?
A: The AUC(t-inf) extrapolated was 0.0396 ng·h/mL.

Q: What about the MRT inf (female, Yorkshire, minipig, plasma, sc, 0.04 mg, MRT 0-inf_obs) of the same compound?
A: The MRT inf was 2.15 h.

Q: What about the MRT inf (female, Yorkshire, minipig, plasma, sc, 0.04 mg, MRT 0-inf_pred) of the same compound?
A: The MRT inf was 2.14 h.

Q: What about the “AUMC 0-inf_obs” value (SC, 0.04 mg) of the same compound?
A: The value was 20668.040 pg/mL*h^2.

Q: What about the “AUMC 0-inf_pred” value (SC, 0.04 mg) of the same compound?
A: Its value is 20587.700 pg/mL*h^2.

Q: What about the “AUMC 0-t” value (SC, 0.04 mg) of the same compound?
A: Its value is 19375.595 pg/mL*h^2.

Q: And the “AUMC t-inf_obs” value (SC, 0.04 mg)?
A: Its value is 1292.445 pg/mL*h^2.

Q: What about the “AUMC t-inf_pred” value (SC, 0.04 mg) of the same compound?
A: Its value is 1212.104 pg/mL*h^2.

Q: And the Clast_obs (SC, 0.04 mg)?
A: Its Clast_obs is 6.435 pg/mL.

Q: And the Clast_pred (SC, 0.04 mg)?
A: Its Clast_pred is 6.035 pg/mL.

Q: What about the Lambda_z (SC, 0.04 mg) of the same compound?
A: The Lambda_z was 0.152 h⁻¹.

Q: What about the Tlag (SC, 0.04 mg) of the same compound?
A: The Tlag was 0.000 h.

Q: And the Tlast (SC, 0.04 mg)?
A: The Tlast was 24.000 h.

Q: What about the “AUMC 0-inf_obs” value (buccal/sublingual, 0.49 mg) of the same compound?
A: The value was 9236.909 pg/mL*h^2.

Q: And the “AUMC 0-inf_pred” value (buccal/sublingual, 0.49 mg)?
A: Its value is 9208.738 pg/mL*h^2.

Q: What about the “AUMC 0-t” value (buccal/sublingual, 0.49 mg) of the same compound?
A: The value was 9001.303 pg/mL*h^2.

Q: What about the “AUMC t-inf_obs” value (buccal/sublingual, 0.49 mg) of the same compound?
A: Its value is 235.606 pg/mL*h^2.

Q: What about the “AUMC t-inf_pred” value (buccal/sublingual, 0.49 mg) of the same compound?
A: Its value is 207.435 pg/mL*h^2.

Q: And the Clast_obs (buccal/sublingual, 0.49 mg)?
A: Its Clast_obs is 17.765 pg/mL.

Q: What about the Clast_pred (buccal/sublingual, 0.49 mg) of the same compound?
A: The Clast_pred was 15.641 pg/mL.

Q: And the Lambda_z (buccal/sublingual, 0.49 mg)?
A: The Lambda_z was 0.709 h⁻¹.

Q: And the Tlag (buccal/sublingual, 0.49 mg)?
A: The Tlag was 0.000 h.

Q: And the Tlast (buccal/sublingual, 0.49 mg)?
A: Its Tlast is 8.000 h.

Q: What about the “Mean PTH (1-34) levels” value (0 min) of the same compound?
A: Its value is 0.000 pg/mL.

Q: And the “Mean PTH (1-34) levels” value (24 hour)?
A: The value was 0.000 pg/mL.

Source: US20240122847A1, “ORAL POLYPEPTIDE FORMULATIONS” (Bhami's Research Laboratory, Pvt. Ltd., priority 2022, published 2024)
